These are literature values, as cited in patent US9701618B2, “Cannabidiol quinone derivatives” (VIVACELL BIOTECHNOLOGY ESPAÑA S.L., priority 2014, dated 2017).

This data set deals with T1, PPARg (Homo sapiens, UniProt P37231).
T1 sequence (P37231 1-505): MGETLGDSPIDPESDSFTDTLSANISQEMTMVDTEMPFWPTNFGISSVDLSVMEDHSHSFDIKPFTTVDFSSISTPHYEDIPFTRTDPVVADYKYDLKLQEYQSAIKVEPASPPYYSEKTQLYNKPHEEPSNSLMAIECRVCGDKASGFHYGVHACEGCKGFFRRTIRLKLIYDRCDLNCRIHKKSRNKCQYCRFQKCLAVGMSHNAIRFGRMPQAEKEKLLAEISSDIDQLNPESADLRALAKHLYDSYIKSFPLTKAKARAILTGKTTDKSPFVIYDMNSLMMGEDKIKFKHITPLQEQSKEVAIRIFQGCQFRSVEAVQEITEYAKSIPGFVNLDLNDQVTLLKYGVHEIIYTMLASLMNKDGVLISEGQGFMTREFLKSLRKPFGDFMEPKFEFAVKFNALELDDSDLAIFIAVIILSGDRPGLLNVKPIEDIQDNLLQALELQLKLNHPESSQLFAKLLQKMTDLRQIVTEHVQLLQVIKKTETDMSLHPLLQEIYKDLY
The conditions noted are these: cited from earlier work.
Regarding 4 methyl-CBD-quinone, the “affinity for PPARg compared to parent molecule CBD” value is listed as “higher affinity”. Turning to 4-formyl-methoxy-CBD-quinone, the “affinity for PPARg compared to parent molecule CBD” value was “higher affinity”. For CBD-1,4-dihydroxyquinone, the “affinity for PPARg compared to parent molecule CBD” value was “higher affinity”.
